Experimental data from ChEMBL document CHEMBL1201862, “PubChem BioAssay data set” (2004).
Calls of active or inactive are those of the source.

Tests used:
[1] = biological target: Glucose-6-phosphate 1-dehydrogenase (Homo sapiens, UniProt P11413); test: human G6PD enzyme inhibitors, dose response, selectivity assay for P. falciparum G6PD inhibitor project, biochemical, fluorescence (AID 504792); assay type: functional
[2] = biological target: T1, Voltage-gated N-type calcium channel alpha-1B subunit/Amyloid beta A4 precursor protein-binding family A member 1 (Homo sapiens, UniProt Q00975+Q02410); assay type: protein assay
T1 sequence (Q00975 whole entry): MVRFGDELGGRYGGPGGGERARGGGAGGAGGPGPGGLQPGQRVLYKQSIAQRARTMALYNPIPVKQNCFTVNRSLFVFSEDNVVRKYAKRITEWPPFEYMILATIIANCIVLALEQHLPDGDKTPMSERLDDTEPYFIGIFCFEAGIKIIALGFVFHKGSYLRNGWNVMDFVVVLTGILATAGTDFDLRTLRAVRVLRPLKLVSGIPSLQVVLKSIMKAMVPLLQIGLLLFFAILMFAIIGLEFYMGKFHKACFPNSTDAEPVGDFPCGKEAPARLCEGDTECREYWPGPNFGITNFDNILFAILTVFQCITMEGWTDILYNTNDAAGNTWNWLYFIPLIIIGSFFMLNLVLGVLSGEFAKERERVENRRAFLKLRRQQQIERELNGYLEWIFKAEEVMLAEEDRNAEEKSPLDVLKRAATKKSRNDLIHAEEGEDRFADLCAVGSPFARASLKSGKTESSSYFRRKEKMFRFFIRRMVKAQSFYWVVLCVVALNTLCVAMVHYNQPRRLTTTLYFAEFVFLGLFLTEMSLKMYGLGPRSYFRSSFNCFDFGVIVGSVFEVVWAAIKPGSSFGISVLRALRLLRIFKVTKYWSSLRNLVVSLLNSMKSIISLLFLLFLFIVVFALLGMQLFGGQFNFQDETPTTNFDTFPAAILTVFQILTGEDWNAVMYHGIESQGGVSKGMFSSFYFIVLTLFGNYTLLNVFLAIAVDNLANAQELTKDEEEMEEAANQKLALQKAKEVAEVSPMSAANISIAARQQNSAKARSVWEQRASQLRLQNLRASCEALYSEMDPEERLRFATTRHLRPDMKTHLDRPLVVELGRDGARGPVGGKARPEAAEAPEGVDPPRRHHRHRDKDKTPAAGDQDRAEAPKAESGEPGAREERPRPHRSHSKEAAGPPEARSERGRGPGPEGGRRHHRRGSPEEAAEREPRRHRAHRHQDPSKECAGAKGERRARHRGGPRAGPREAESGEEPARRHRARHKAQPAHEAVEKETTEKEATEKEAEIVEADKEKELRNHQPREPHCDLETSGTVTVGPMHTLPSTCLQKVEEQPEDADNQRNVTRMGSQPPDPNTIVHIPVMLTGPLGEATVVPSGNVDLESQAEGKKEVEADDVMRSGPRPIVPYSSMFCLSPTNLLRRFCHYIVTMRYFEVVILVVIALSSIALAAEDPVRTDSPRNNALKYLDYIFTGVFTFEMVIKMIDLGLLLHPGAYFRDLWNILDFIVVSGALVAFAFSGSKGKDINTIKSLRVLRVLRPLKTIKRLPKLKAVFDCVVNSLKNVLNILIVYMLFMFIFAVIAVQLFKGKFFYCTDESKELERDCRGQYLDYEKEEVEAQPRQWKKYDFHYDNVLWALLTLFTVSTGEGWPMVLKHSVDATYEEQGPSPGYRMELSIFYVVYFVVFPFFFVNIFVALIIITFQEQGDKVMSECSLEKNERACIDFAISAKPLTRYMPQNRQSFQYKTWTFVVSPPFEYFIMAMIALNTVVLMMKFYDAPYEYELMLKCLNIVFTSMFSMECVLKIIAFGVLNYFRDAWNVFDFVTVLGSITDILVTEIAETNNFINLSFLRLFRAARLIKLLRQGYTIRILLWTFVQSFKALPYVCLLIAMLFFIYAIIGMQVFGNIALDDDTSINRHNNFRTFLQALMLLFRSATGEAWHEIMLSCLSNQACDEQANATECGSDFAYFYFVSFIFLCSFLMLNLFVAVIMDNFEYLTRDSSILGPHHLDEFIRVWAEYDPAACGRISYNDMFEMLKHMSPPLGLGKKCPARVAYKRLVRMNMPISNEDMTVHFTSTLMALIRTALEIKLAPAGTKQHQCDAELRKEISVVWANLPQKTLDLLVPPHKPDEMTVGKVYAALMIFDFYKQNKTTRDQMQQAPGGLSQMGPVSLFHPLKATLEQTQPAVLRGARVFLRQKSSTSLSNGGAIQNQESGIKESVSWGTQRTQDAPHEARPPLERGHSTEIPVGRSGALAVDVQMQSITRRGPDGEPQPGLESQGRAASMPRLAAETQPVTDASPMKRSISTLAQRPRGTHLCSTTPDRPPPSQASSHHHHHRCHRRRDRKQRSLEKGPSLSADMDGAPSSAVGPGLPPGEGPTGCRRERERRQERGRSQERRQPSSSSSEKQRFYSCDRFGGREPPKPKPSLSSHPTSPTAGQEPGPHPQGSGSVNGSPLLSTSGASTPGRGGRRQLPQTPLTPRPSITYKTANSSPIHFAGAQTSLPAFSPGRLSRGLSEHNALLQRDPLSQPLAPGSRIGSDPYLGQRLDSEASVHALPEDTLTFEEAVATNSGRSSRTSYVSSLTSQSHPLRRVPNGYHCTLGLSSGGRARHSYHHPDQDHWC
T1 sequence (Q02410 whole entry): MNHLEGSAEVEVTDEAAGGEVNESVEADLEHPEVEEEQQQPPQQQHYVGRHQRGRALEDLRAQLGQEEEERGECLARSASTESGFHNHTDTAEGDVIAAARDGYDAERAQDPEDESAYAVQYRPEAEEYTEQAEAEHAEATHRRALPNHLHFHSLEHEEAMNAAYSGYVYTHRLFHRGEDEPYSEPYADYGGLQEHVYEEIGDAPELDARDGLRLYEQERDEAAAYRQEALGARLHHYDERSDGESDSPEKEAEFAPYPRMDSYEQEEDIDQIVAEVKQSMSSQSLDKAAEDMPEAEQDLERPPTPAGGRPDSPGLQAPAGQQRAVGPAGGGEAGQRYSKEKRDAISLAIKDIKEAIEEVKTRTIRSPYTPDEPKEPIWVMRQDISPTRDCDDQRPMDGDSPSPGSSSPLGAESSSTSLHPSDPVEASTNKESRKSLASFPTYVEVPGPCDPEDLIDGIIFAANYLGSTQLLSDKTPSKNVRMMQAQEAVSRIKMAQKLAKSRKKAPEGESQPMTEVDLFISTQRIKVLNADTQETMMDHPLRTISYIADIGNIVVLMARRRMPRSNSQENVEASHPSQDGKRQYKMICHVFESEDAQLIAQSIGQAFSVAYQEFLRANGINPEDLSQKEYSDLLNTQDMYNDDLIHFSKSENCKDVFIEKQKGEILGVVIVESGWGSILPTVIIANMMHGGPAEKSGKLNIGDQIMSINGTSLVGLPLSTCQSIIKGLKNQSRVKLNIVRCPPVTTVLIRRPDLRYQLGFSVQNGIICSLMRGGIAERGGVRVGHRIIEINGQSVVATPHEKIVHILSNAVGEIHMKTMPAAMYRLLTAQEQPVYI

[3] = A cytotoxicity screen of small molecule inhibitors of the PhoP region in Salmonella typhi identified in the primary screen. [Related pubchem assays: 1850, 1864, 1985 ]; assay type: functional
[4] = biological target: T1, Voltage-gated N-type calcium channel alpha-1B subunit/Amyloid beta A4 precursor protein-binding family A member 1; assay type: protein assay; remark: listed apart in the source
cells [5] = assay type: functional, cell-based
cells [6] = assay type: functional, cell-based; remark: listed apart in the source
Integrin alpha-L = Integrin alpha-L (Mus musculus, UniProt P24063); test: modulators of CD8 T cell-vesicle binding, dose response, powder samples, mouse 2C CD8+ cells (AID 504565); assay type: functional
T-cell = test: inhibitors of CD8+ T cell–vesicle binding, dose response, mouse 2C CD8+ T cells, flow cytometry (AID 485284); assay type: functional
HEK293 [7] = test: cells; assay type: functional, cell-based; conditions: Homo sapiens
HEK293 [8] = test: cells; assay type: functional, cell-based; conditions: Homo sapiens; remark: listed apart in the source
HEK293 [9] = test: NOD1 signaling inhibitors, primary screen, cell-based, luminescence, uHTS (AID 1578); assay type: functional; conditions: Homo sapiens
HEK293 [10] = test: cells; assay type: functional, cell-based; conditions: Homo sapiens; remark: listed apart in the source
HEK293 [11] = test: NOD2 signaling inhibitors in MDP-stimulated cells, cell-based, uHTS, luminescence (AID 2001); assay type: functional; conditions: Homo sapiens
[12] = biological target: Nucleotide-binding oligomerization domain-containing protein 2 (Homo sapiens, UniProt Q9HC29); test: NOD2 signaling inhibitors, cell-based, luminescence, uHTS, HEK293 (AID 1566); assay type: functional
Nucleotide-binding oligomerization domain-containing protein 2, sequence (Q9HC29 whole entry, the tested form may be a part): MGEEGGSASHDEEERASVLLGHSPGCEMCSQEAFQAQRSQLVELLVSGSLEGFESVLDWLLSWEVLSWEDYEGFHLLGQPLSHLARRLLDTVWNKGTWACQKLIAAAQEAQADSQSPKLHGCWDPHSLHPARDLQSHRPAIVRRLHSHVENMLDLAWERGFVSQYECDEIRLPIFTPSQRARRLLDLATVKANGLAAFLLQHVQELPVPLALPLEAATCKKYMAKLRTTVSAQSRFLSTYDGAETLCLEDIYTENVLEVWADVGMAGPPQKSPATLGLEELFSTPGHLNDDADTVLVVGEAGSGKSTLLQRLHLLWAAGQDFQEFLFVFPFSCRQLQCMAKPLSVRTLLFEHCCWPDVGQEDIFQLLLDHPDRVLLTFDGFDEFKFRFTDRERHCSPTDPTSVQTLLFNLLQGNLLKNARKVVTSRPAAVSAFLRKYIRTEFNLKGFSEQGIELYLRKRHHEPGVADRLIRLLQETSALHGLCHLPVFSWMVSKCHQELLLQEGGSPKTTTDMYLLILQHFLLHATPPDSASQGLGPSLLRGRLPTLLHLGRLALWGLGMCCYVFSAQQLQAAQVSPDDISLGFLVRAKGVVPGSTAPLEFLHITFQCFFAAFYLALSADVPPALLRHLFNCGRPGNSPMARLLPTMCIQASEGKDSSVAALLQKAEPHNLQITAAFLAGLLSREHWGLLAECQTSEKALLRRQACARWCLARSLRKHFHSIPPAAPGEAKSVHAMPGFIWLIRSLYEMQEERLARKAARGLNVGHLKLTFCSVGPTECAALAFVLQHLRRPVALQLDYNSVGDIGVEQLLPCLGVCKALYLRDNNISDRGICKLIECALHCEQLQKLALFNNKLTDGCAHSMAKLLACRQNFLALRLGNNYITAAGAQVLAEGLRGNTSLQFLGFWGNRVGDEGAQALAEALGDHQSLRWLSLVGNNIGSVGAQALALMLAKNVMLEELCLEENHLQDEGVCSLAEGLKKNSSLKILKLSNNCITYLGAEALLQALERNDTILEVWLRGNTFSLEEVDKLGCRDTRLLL

[13] = biological target: Delta-type opioid receptor (Homo sapiens, UniProt P41143); test: SAR Analysis of Antagonists of the DOR Receptor using an Image-Based Assay - Set 3. [Related pubchem assays (depositor defined):AID1777, AID1785]; assay type: functional;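 further: U2OS cells expressing DOR1 and beta-arrestin GFP stimulated with 100 nM SNC80; imaging of GFP-tagged beta-arrestin moving into spots after receptor activation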
[14] = biological target: T2, Kappa-type opioid receptor (Homo sapiens, UniProt P41145); test: SAR analysis of Antagonists of the Kappa Opioid Receptor (KOR) using an Image-Based Assay - Set 4. [Related pubchem assays (depositor defined):AID1777, AID1785]; assay type: functional
T2 sequence (P41145 whole entry): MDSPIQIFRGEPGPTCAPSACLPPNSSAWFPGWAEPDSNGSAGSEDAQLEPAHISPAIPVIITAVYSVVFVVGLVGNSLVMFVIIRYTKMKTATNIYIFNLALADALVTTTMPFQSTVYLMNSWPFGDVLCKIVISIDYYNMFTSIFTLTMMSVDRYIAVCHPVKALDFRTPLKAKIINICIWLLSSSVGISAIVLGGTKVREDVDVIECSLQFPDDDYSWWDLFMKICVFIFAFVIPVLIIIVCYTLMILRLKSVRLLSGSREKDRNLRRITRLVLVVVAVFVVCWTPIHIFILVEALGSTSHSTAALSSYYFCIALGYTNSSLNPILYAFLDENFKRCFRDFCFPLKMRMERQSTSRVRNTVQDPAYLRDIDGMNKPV

[15] = biological target: T2, Kappa-type opioid receptor; test: SAR analysis of small molecule antagonists of the kappa opioid receptor via a luminescent beta-arrestin assay - Set 3. [Related pubchem assays (depositor defined):AID1777, AID1778, AID1785, AID1786, AID1966, AID2133, AID2136, AID2285, AID2495]; assay type: functional
Mu-type opioid receptor = Mu-type opioid receptor (Homo sapiens, UniProt P35372); test: SAR Analysis of Antagonists of the MOR Receptor using an Image-Based Assay - Set 3. [Related pubchem assays (depositor defined):AID1777, AID1785, AID1786, AID1966, AID2133, AID2136, AID2284, AID2285, AID2420]; assay type: functional
Mu-type opioid receptor, sequence (P35372 whole entry): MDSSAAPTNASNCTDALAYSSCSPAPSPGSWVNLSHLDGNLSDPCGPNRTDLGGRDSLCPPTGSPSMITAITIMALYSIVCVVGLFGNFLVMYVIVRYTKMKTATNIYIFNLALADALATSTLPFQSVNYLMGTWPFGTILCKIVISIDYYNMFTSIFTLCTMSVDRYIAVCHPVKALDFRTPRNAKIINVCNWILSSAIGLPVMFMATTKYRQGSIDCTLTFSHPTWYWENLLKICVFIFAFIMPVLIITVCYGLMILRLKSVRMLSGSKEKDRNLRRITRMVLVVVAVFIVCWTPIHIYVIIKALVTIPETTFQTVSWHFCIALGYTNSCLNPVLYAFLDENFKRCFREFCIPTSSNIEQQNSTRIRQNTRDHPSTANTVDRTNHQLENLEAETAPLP

Vibrio harveyi [16] = test: Quorum Sensing, LuxS, LuxPQ Measured in Microorganism System Using Plate Reader - 2035-01_Inhibitor_DoseNoFile_DryPowder_Activity. [Related pubchem assays (depositor defined):AID2106]; assay type: functional, organism-based
Vibrio harveyi [17] = test: inhibitors of AI-2 quorum sensing in V. harveyi, dose response, LuxS, LuxPQ, dry powder, set 2 (AID 493072); assay type: functional, organism-based

Structure (SMILES): COc1cc(OC)c(C2CC(=O)N3CN(c4ccccc4)CSC3=C2C#N)cc1OC (stereo not given)
- IC50 [1]: > 80 µM (inactive)
- IC50 [2]: 6.01 µM (active)
- EC50 [3]: > 50 µM (active)
- IC50 [4]: > 50 µM (inactive)

Structure (SMILES): CCOCC(=O)Nc1ccc(S(=O)(=O)N2CCC(c3nc4ccccc4[nH]3)CC2)cc1
- EC50 (cells [5]): > 350 µM (not active)
- EC50 (cells [6]): > 350 µM (not active)
- EC50 (Integrin alpha-L): 246 nM (active)
- EC50 (T-cell): 1.37 µM (active)

Structure (SMILES): Cc1c(C(=O)N2CCN(c3ccc(F)cc3)CC2)sc2ncnc(N3CCN(c4ccccn4)CC3)c12
- IC50 (HEK293 [7]): 4.81 µM (active)
- IC50 (HEK293 [8]): 16.8 µM (active)
- EC50 (HEK293 [9]): 5.71 µM (active)
- IC50 (HEK293 [10]): 11.9 µM (active)
- IC50 (HEK293 [11]): 7.42 µM (inactive)
- EC50 [12]: 4.24 µM (active)

Structure (SMILES): COc1ccc(N2CCN(CCCNC(=O)Cn3c(=O)c4cccn4c4cccnc43)CC2)c(OC)c1
- IC50 [13]: > 32 µM (inactive)
- IC50 [14]: 490 nM (active)
- IC50 [15]: 2.65 µM (active)
- IC50 (Mu-type opioid receptor): 10.8 µM (inactive)

Structure (SMILES): CCc1ccc(S(=O)(=O)Nc2ccc(Br)cn2)cc1
- AC50 (Vibrio harveyi [16]): 3.22 µM (active)
- AC50 (Vibrio harveyi [17]): 8.16 µM (active)
